ChEMBL document CHEMBL1130447, “Two-ring DNA minor-groove binders consisting of readily available, di-substituted benzene derivatives” (Bioorg Med Chem Lett, 1997)

Columns and labels:
Assay type in all cases: nucleic-acid assay
Nucleic Acid [1] = assay: The compound was tested for its binding affinity to Poly (dA-dT) by using ethidium displacement assay
Nucleic Acid [2] = assay: The compound was tested for its binding affinity to Poly (dG-dC) by using ethidium displacement assay
Nucleic Acid [3] = assay: The compound was tested for its binding affinity to calf thymus DNA by using ethidium displacement assay; conditions: Bos taurus
Nucleic Acid [4] = assay: The compound was tested for its binding affinity to T4 ethidium displacement assay

Row | SMILES | C50 (Nucleic Acid [1]) [µM] | C50 (Nucleic Acid [2]) [µM] | C50 (Nucleic Acid [3]) [µM] | C50 (Nucleic Acid [4]) [µM]
1 | N=C(N)c1ccc(/N=N/Nc2ccc(C(=N)N)cc2)cc1 | 0.9 | 5.7 |  | 
2 | CN(C)CCCNC(=O)c1ccc(C(=O)Nc2cccc(NC(=O)CCCN(C)C)c2)cc1 | 1.9 | 142 | 31.9 | 27.1
3 | CN(C)CCCNC(=O)Nc1ccc(NC(=O)c2ccc(C(=O)NCCCN(C)C)cc2)cc1 | 23.5 | 77.3 | 44.8 | 35.2
4 | CN1CCN(c2ccc3[nH]c(-c4ccc5[nH]c(-c6ccc(O)cc6)nc5c4)nc3c2)CC1 | 0.2 | 1.4 |  | 
5 | C[n+]1ccc(Nc2ccc(NC(=O)c3ccc(Nc4cc[n+](C)c5ccccc45)cc3)cc2)cc1 | 0.17 | 2.8 |  | 
6 | CN(C)CCCNC(=O)Nc1cccc(NC(=O)c2ccc(C(=O)NCCCN(C)C)cc2)c1 | 4.2 | 222 | 43.5 | 28.6
7 | CN(C)CCCNC(=O)c1cccc(C(=O)Nc2ccc(NC(=O)CCCN(C)C)cc2)c1 | 28.4 | 55.6 | 47.3 | 35.6
